Several values for one entry are separate records, joined by “and”; a condition that tells them apart may be missing. Identical values can stand only once. Bridge positions count the residues as written; N and C are the ends. Square brackets hold non-standard residues; d marks the D form. Peptide text beside a SMILES is read from it. PhLac = O=C(O)[C@@H](O)Cc1ccccc1
Columns and labels:
GLP-1 Receptor = GLP-1 Receptor (Homo sapiens, UniProt P43220); test: Functional assay, cAMP induction (luciferase reporter, HEK293) at GLP-1 receptor; format: cell-based
GLP-1 Receptor, sequence (P43220 24-463): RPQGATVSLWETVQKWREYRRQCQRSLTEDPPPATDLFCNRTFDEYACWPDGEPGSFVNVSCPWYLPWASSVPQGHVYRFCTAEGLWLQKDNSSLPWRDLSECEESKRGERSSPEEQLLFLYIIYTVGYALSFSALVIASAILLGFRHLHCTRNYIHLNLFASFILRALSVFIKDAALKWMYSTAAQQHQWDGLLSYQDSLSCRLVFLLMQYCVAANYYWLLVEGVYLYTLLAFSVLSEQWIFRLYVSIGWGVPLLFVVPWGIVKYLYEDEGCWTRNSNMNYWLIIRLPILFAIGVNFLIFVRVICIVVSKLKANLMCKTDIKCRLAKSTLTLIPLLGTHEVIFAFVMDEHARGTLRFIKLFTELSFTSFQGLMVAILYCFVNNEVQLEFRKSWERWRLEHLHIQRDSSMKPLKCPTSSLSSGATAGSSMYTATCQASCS

Glucagon Receptor = Glucagon Receptor (Homo sapiens, UniProt P47871); test: cAMP inhibition: antagonism of glucagon-induced cAMP at glucagon receptor; format: cell-based; set-up: expressed in transfected cells; host or cells: HEK293
Glucagon Receptor, sequence (P47871 26-477): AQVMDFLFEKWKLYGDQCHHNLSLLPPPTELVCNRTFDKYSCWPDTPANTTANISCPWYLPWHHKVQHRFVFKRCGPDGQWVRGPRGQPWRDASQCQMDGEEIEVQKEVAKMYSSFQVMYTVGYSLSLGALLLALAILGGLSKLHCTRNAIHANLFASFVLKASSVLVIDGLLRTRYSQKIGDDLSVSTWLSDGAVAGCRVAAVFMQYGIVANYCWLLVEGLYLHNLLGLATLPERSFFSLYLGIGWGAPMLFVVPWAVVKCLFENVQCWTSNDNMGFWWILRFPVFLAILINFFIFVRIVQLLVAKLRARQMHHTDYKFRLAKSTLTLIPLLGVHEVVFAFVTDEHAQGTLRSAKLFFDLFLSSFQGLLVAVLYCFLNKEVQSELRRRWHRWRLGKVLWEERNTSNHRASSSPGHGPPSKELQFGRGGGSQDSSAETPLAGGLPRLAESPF

[1] = GLP-1 agonism EC50 (nM), Table 17
[2] = Glucagon antagonism IC50 (nM, inhibit 0.2-0.8 nM glucagon), Table 17

With `CSCC[C@H](NC(=O)[C@H](CC(C)C)NC(=O)[C@H](Cc1c[nH]c2ccccc12)NC(=O)[C@H](CCC(N)=O)NC(=O)[C@@H](NC(=O)[C@H](Cc1ccccc1)NC(=O)[C@H](CC(=O)O)NC(=O)[C@@H]1CCCCNC(=O)CC[C@H](NC(=O)[C@H](CC(=O)O)NC(=O)[C@H](CC(C)C)NC(=O)[C@H](Cc2ccc(O)cc2)NC(=O)[C@H](CCCCN)NC(=O)[C@H](CO)NC(=O)[C@H](Cc2ccc(O)cc2)NC(=O)[C@H](CC(=O)O)NC(=O)[C@H](CO)NC(=O)[C@@H](NC(=O)[C@@H](O)Cc2ccccc2)[C@@H](C)O)C(=O)N[C@@H](CCCNC(=N)N)C(=O)N[C@@H](CCCNC(=N)N)C(=O)N[C@@H](C)C(=O)N1)C(C)C)C(=O)N[C@@H](CC(=O)O)C(=O)N[C@H](C(N)=O)[C@@H](C)O` [[PLA6, D9, E16K20(lactam), D28]G(6-29)] (H-[PhLac]TSDYSKYLDERRAKDFVQWLMDT-NH2; lactam 11-15) the EC50 (GLP-1 Receptor; GLP-1 EC50 (nM), Table 14) was 5 to 25 nM, the EC50 (GLP-1 Receptor; [1]) was 6.9 nM and 4.2 nM and the EC50 (GLP-1 Receptor; GLP-1 agonism EC50 (nM), Table 19) was 10.6 ± 0.97 nM. For the same compound, the EC50 (GLP-1 Receptor; GLP-1 agonism EC50 (nM), Table 21) was 5 to 28 nM, the IC50 (Glucagon Receptor; Glucagon IC50 (nM), Table 14) was 10 to 30 nM and the IC50 (Glucagon Receptor; Glucagon antagonism IC50(nM) (inhibit 0.2-0.8 nM glucagon), Table 21) was 5 to 27 nM. The IC50 (Glucagon Receptor; Glucagon antagonism IC50 (nM, inhibit 0.4 nM glucagon), Table 22) was 5 to 27 nM, the IC50 (Glucagon Receptor; Glucagon antagonism IC50 (nM, inhibit 0.8 nM glucagon), Table 19) was 13.7 ± 1.2 nM and the IC50 (Glucagon Receptor; [2]) was 11.7 ± 2.8 nM. The IC50 (Glucagon Receptor; Glucagon antagonism IC50 (nM, inhibit 0.2-0.8 nM glucagon), Table 18) was 5.5 nM.
Compound `CSCC[C@H](NC(=O)[C@H](CC(C)C)NC(=O)[C@H](Cc1c[nH]c2ccccc12)NC(=O)[C@H](CCC(N)=O)NC(=O)[C@@H](NC(=O)[C@H](Cc1ccccc1)NC(=O)[C@H](CC(=O)O)NC(=O)[C@H](CCC(N)=O)NC(=O)[C@H](C)NC(=O)[C@H](CCCNC(=N)N)NC(=O)[C@H](CCCNC(=N)N)NC(=O)[C@@H]1CCC(=O)NCCCC[C@H](NC(=O)[C@H](CO)NC(=O)[C@H](Cc2ccc(O)cc2)NC(=O)[C@H](CC(=O)O)NC(=O)[C@H](CO)NC(=O)[C@@H](NC(=O)[C@@H](O)Cc2ccccc2)[C@@H](C)O)C(=O)N[C@@H](Cc2ccc(O)cc2)C(=O)N[C@@H](CC(C)C)C(=O)N[C@@H](CC(=O)O)C(=O)N1)C(C)C)C(=O)N[C@@H](CC(=O)O)C(=O)N[C@H](C(N)=O)[C@@H](C)O` [[PLA6, D9, K12E16(Lactam), D28]G(6-29)] (H-[PhLac]TSDYSKYLDERRAQDFVQWLMDT-NH2; lactam 7-11) has an EC50 (GLP-1 Receptor; [1]) of 38.5 ± 7.6 nM and an IC50 (Glucagon Receptor; [2]) of 58.3 ± 3.3 nM.
`CSCC[C@H](NC(=O)[C@H](CC(C)C)NC(=O)[C@H](Cc1c[nH]c2ccccc12)NC(=O)[C@H](CCC(N)=O)NC(=O)[C@@H](NC(=O)[C@H](Cc1ccccc1)NC(=O)[C@H](CC(=O)O)NC(=O)[C@H](CCC(N)=O)NC(=O)[C@H](C)NC(=O)[C@H](CCCNC(=N)N)NC(=O)[C@H](CCCNC(=N)N)NC(=O)[C@H](CCC(=O)O)NC(=O)[C@H](CC(=O)O)NC(=O)[C@H](CC(C)C)NC(=O)[C@H](Cc1ccc(O)cc1)NC(=O)[C@H](CCCCN)NC(=O)[C@H](CO)NC(=O)[C@H](Cc1ccc(O)cc1)NC(=O)[C@H](CCC(=O)O)NC(=O)[C@H](CO)NC(=O)[C@@H](NC(=O)[C@@H](O)Cc1ccccc1)[C@@H](C)O)C(C)C)C(=O)N[C@@H](CC(N)=O)C(=O)N[C@H](C(=O)NCC(=O)N1CCC[C@H]1C(=O)N[C@@H](CO)C(=O)N[C@@H](CO)C(=O)NCC(=O)N[C@@H](C)C(=O)N1CCC[C@H]1C(=O)N1CCC[C@H]1C(=O)N1CCC[C@H]1C(=O)N[C@@H](CO)C(N)=O)[C@@H](C)O` [[PLA6, E9, E16]G(6-39)] (H-[PhLac]TSEYSKYLDERRAQDFVQWLMNTGPSSGAPPPS-NH2) showed an EC50 (GLP-1 Receptor; GLP-1 agonism EC50 (nM), Table 16) of 1760 nM and an IC50 (Glucagon Receptor; Glucagon antagonism IC50 (nM, inhibit 0.2-0.8 nM glucagon), Table 16, combined results of three assays) of 58.1 nM.

From patent publication US8980830B2 (priority 2007, dated 2015)
